Data on three compounds can be found in patent publication US9370185B2, “Herbicidal composition” (ISHIHARA SANGYO KAISHA, LTD., priority 2011, dated 2016).

Common to all, as to assay type: in vivo
Experiment [1] deals with crabgrass (Digitaria sanguinalis (L.) Scop.). Description: Test Example 2: foliar treatment of crabgrass, visual growth inhibition. As to conditions: foliar treatment at 4.0 to 4.5 leaf stage, 21st day after treatment, read-out: Growth Inhibition Rate of Crabgrass (%) Measured Value. As for the experimental part:
(§1) Growth inhibition rate (%)=weed control rate of from 0% (equivalent to the non-treated plot) to 100% (complete kill)
Upland field soil was put into a 1/1,000,000-ha pot, and seeds of crabgrass (Digitaria sanguinalis (L.) Scop.) were sown. When the crabgrass reached the 4.0 to 4.5 leaf stage, prescribed amounts of SHIBAGEN DF (trade name) and a wettable powder containing pyroxasulfone as an active ingredient were diluted with water (corresponding to 1,000 L/ha) containing 0.05% by volume of KUSARINOH (trade name) and applied for foliar treatment by a small sprayer.
On the 21st day after the treatment, the state of growth of the crabgrass was visually observed and examined.

For experiment [2], the system named is common lambsquarters (Chenopodium album L.). Description: Test Example 4: soil treatment, common lambsquarters, visual growth inhibition. As to conditions: 24 h, soil treatment one day after sowing, 27th day after treatment, read-out: Growth Inhibition Rate of Common lambsquarters (%) Measured Value. As for the experimental part:
as §1
Upland field soil was put into a 1/1,000,000-ha pot, and seeds of common lambsquarters (Chenopodium album L.) were sown. After one day, prescribed amounts of a water-based suspension containing nicosulfuron as an active ingredient and a wettable powder containing pyroxasulfone as an active ingredient were diluted with water (corresponding to 300 L/ha) and applied for soil treatment by a small sprayer.
On the 27th day after the treatment, the state of growth of the common lambsquarters was visually observed and examined.

Experiment [3] has as its system wild oat (Avena fatua L.). Description: Test Example 6: soil treatment, wild oat, visual growth inhibition. As to conditions: 24 h, soil treatment one day after sowing, 28th day after treatment, read-out: Growth Inhibition Rate of Wild oat (%) Measured Value. As for the experimental part: as §1
Upland field soil was put into a 1/300,000-ha pot, and seeds of wild oat (Avena fatua L.) were sown. After one day, prescribed amounts of SHIBAGEN DF (trade name) and a wettable powder containing pyroxasulfone as an active ingredient were diluted with water (corresponding to 1,000 L/ha) and applied for soil treatment by a small sprayer.
On the 28th day after the treatment, the state of growth of the wild oat was visually observed and examined.

Experiment [4] deals with black nightshade (Solanum nigrum L.). Description: Test Example 1: foliar treatment of black nightshade, visual growth inhibition. As to conditions: foliar treatment at 2.3 to 2.5 leaf stage, 21st day after treatment, read-out: Growth Inhibition Rate of Black nightshade (%) Measured Value. As for the experimental part:
Upland field soil was put into a 1/1,000,000-ha pot, and seeds of black nightshade (Solanum nigrum L.) were sown. When the black nightshade reached the 2.3 to 2.5 leaf stage, prescribed amounts of a water dispersible granules containing flazasulfuron as an active ingredient (trade name: SHIBAGEN DF, manufactured by Ishihara Sangyo Kaisha, Ltd.) and a wettable powder containing pyroxasulfone as an active ingredient were diluted with water (corresponding to 1,000 L/ha) containing 0.05% by volume of an agricultural adjuvant (trade name: KUSARINOH, manufactured by NIHON NOHYAKU Co., Ltd.) and applied for foliar treatment by a small sprayer.
On the 21st day after the treatment, the state of growth of the black nightshade was visually observed and examined, followed by evaluation according to the following evaluation criteria. A growth inhibition rate (%) (measured value) and a growth inhibition rate (%) (calculated value) as calculated according to the foregoing Colby's method are shown in Table 1.
as §1

In experiment [5] the test system is velvetleaf (Abutilon theophrasti Medic.). Description: Test Example 3: soil treatment, velvetleaf, visual growth inhibition. As to conditions: 24 h, soil treatment one day after sowing, 21st day after treatment, read-out: Growth Inhibition Rate of Velvetleaf (%) Measured Value. The method, then:
as §1
Upland field soil was put into a 1/1,000,000-ha pot, and seeds of velvetleaf (Abutilon theophrasti Medic.) were sown. After one day, prescribed amounts of SHIBAGEN DF (trade name) and a wettable powder containing pyroxasulfone as an active ingredient were diluted with water (corresponding to 1,000 L/ha) and applied for soil treatment by a small sprayer.
On the 21st day after the treatment, the state of growth of the velvetleaf was visually observed and examined.

Experiment [6] concerns black nightshade (Solanum nigrum L.). Description: Test Example 5: soil treatment, black nightshade, visual growth inhibition. As to conditions: 24 h, soil treatment one day after sowing, 14th day after treatment, read-out: Growth Inhibition Rate of Black nightshade (%) Measured Value. As for the experimental part:
as §1
Upland field soil was put into a 1/300,000-ha pot, and seeds of black nightshade (Solanum nigrum L.) were sown. After one day, prescribed amounts of SHIBAGEN DF (trade name) and a wettable powder containing pyroxasulfone as an active ingredient were diluted with water (corresponding to 1,000 L/ha) and applied for soil treatment by a small sprayer.
On the 14th day after the treatment, the state of growth of the black nightshade was visually observed and examined.

Experiment [7] has as its system velvetleaf (Abutilon theophrasti Medic.). Description: Test Example 7: soil treatment, velvetleaf, visual growth inhibition. As to conditions: 24 h, soil treatment one day after sowing, 28th day after treatment, read-out: Growth Inhibition Rate of Velvetleaf (%) Measured Value. As for the experimental part:
as §1
Upland field soil was put into a 1/300,000-ha pot, and seeds of velvetleaf (Abutilon theophrasti Medic.) were sown. After one day, prescribed amounts of an oil-based suspension (trade name: ONEHOPE NYUZAI, manufactured by Ishihara Sangyo Kaisha, Ltd.) containing nicosulfuron as an active ingredient and a wettable powder containing pyroxasulfone as an active ingredient were diluted with water (corresponding to 1,000 L/ha) and applied for soil treatment by a small sprayer.
On the 28th day after the treatment, the state of growth of the velvetleaf was visually observed and examined.

Broadly, the inhibition is how much of the control response was suppressed. Turning to `Cn1nc(C(F)(F)F)c(CS(=O)(=O)C2=NOC(C)(C)C2)c1OC(F)F` [pyroxasulfone, 3-[5-(difluoromethoxy)-1-methyl-3-(trifluoromethyl)pyrazol-4-ylmethylsulfonyl]-4,5-dihydro-5,5-dimethyl-1,2-oxazole], the inhibition at 25 g/ha in experiment [1] (dose 25 g/ha) was found to be 0%; in experiment [4] (dose 25 g/ha) it was 20%. For the same compound, the inhibition at 200 g/ha in experiment [1] (dose 200 g/ha) was found to be 40%. In experiment [2] (dose 125 g/ha), the inhibition at 125 g/ha was determined as 90%. Besides, the results for the inhibition at 12.5 g/ha in experiment [3] (dose 12.5 g/ha) and in experiment [5] (dose 12.5 g/ha) were 0% and 13%, respectively. Further, the inhibition at 50 g/ha in experiment [6] turned out to be 20%; in experiment [7] (dose 50 g/ha) it was 40%. Moreover, the inhibition at 150 g/ha in experiment [6] (dose 150 g/ha) was found to be 30%. Further, the inhibition at 300 g/ha stood at 30% in experiment [6] (dose 300 g/ha) and 80% in experiment [7] (dose 300 g/ha). For the same compound, the inhibition at 100 g/ha in experiment [7] was determined as 70%.

In the case of `COc1cc(OC)nc(NC(=O)NS(=O)(=O)c2ncccc2C(F)(F)F)n1` [flazasulfuron, 1-(4,6-dimethoxypyrimidin-2-yl)-3-(3-trilfuoromethyl-2-pyridylsulfony)urea], the inhibition at 50 g/ha was 70% in experiment [1] (dose 50 g/ha), 94% in experiment [5] (dose 50 g/ha) and 60% in experiment [6]. Also, the inhibition at 100 g/ha came to 85% in experiment [3] (dose 100 g/ha) and 80% in experiment [6] (dose 100 g/ha). In addition, the inhibition at 12.5 g/ha in experiment [4] (dose 12.5 g/ha) turned out to be 33%. In addition, the inhibition at 25 g/ha in experiment [6] (dose 25 g/ha) turned out to be 50%.

Turning to `COc1cc(OC)nc(NC(=O)NS(=O)(=O)c2ncccc2C(=O)N(C)C)n1` [nicosulfuron, 2-(4,6-dimethoxypyrimidin-2-ylcarbamoylsulfamoyl)-N,N-dimethylnicotinamide], the inhibition at 30 g/ha in experiment [2] (dose 30 g/ha) is 35%. Also, the inhibition at 20 g/ha in experiment [7] (dose 20 g/ha) came to 0%. Further, the inhibition at 100 g/ha in experiment [7] worked out at 10%.
